Laboratory results published in PubChem BioAssay AID2060909 (Molecular Pharmacology Branch, DTP, NCI, 2025).

System: 362531-283-R-J2-PDC complex spheroid viability
Assay: Anticancer human tumor 362531-283-R-J2-PDC patient-derived colon adenocarcinoma cell line growth inhibition [RAS]
Conditions: for IC50: curve of first compound; for viability, T/C: stronger effect = lower value
From the text: RAS pathway inhibitors in Combinations in Complex Spheroids
A high-throughput screen of multi-cell type tumor spheroids was designed to identify active combinations of RAS pathway inhibitors and targeted small molecules. Complex spheroids include a stromal component modeled by human endothelial cells (HUVEC) and fibroblasts modeled by human mesenchymal stem cells (MSCs). The concentration ranges selected for each drug and investigational agent were based upon clinically achievable concentrations if the clinical Cmax of the agent was known.
Compounds. The drugs and investigational agents: abemaciclib (NSC768073), cobimetinib (NSC768068), divarasib (GDC6063, NSC841802), docetaxel (NSC628503), GDC-1971 (RLY-1971, NSC841576), gemcitabine (NSC613327), inavolisib (NSC800729), ipatasertib (NSC767898), KB-0742 (NSC834161), MRTX-1133 (NSC836407), osimertinib (NSC779217), RMC-4630 (NSC839698), RMC-6236 (NSC851965), RMC-6291 (NSC852671), Ro-3306 (NSC812927), sapanisertib (NSC764658), SN-38 (NSC673596), staurosporine (NSC755774), SY5609 (NSC837396), and tovorafenib (DAY101, NSC766906), were obtained from the National Cancer Institute (NCI) Developmental Therapeutics Program Chemical Repository. The FDA-approved anticancer drug set is available from the NCI Developmental Therapeutics Program. […] The stock solutions were prepared in dimethyl sulfoxide (DMSO, Sigma-Aldrich, St. Louis, MO, cat. D2650) at 800-fold the tested concentration and stored at -70 degrees C prior to their use. All drugs and investigational agents were tested over a range starting from a high concentration at or near the clinical Cmax and decreasing in half-log increments. If the clinical Cmax for an agent had not been determined, the highest concentration tested was 10 microM.
Cell Culture. All cells were maintained in an incubator at 37 degrees C and 5% CO2 with 95% humidity. The PDC lines were cultured according to standard operating procedures established by the NCI PDMR. All PDCs were thawed and cultured in Matrigel-coated flasks prepared with a working solution of 1X Ham's F-12 nutrient mix, without supplementation (Invitrogen, Waltham, MA, cat. 11765054), 100 U/mL penicillin-streptomycin (Invitrogen, cat. 15140122), and 2.5% Matrigel (Corning Inc., Corning, NY, cat. 354248) for the first three passages. The 362531-283-R-J2-PDC and 782815-120-R-J1-PDC lines were cultured in 6C/Colon 1B media, which includes advanced DMEM/F-12 (Thermo Fisher Scientific, cat. 12634028), 10 mM HEPES (Thermo Fisher Scientific, cat. 15630080), 1X GlutaMAX supplement (Thermo Fisher Scientific, cat. 35050061), 0.1 mg/mL primocin (InvivoGen, San Diego, CA, cat. ant-pm-2), 10% defined fetal bovine serum, heat inactivated (HyClone Laboratories Inc., Logan, UT, cat. SH30070.03HI), 50% L-WRN conditioned media (ATCC, cat. CRL-3276), 1.25 mM N-Acetyl-L-cysteine (Sigma-Aldrich, cat. A9165), 10 mM nicotinamide (Sigma-Aldrich, cat. N0636), 1X B-27 supplement (Thermo Fisher Scientific, cat. 17504044), 1X N-2 supplement (Thermo Fisher Scientific, cat. 17502048), 50 ng/mL human EGF (Thermo Fisher Scientific, cat. PHG0311), and 10 microM Y-27632 dihydrochloride (Tocris Bioscience, cat. 1254). The K12877-001-R-J1-PDC line was cultured in 6I media, which includes all 6C/Colon 1B media plus 10 ng/mL human FGF-10 (PeproTech, cat. 100-26), 1 ng/mL human FGF-2 (PeproTech, cat. 100-18B), 1 µM prostaglandin E2 (Tocris Bioscience, cat. 2296), […] hydrocortisone (Sigma-Aldrich, cat. H4001), and […] bovine insulin (Sigma-Aldrich, cat. I6634). The K86415-001-R-J1-PDC line was cultured in 6D media, which includes all 6C/Colon 1B media components minus the L-WRN conditioned media. The 485176-168-R4-J1-PDC was cultured in PANC media, which includes all 6C/Colon 1B media plus 100 ng/mL human FGF-10 (PeproTech, cat. 100-26), 500 nM SB-431542 (Selleckchem, cat. S1067), and 10 nM gastrin (Tocris Bioscience, cat. 3006). […]
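Note: spheroids exposed to the agents for 7 days before readout.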
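Throughout, for viability, T/C: luminescence viability as percent of DMSO vehicle control wells.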

Compound: C=CC(=O)Nc1cc(Nc2nccc(-c3cn(C)c4ccccc34)n2)c(OC)cc1N(C)CCN(C)C + C=CC(=O)N1CCN(c2nc(OCC3CCCN3C)nc3c(F)c(-c4nc(N)cc(C)c4C(F)(F)F)c(Cl)cc23)C(C)C1
- IC50 (second compound 0.00316 µM): > 1 µM
- IC50 (second compound 0.01 µM): > 1 µM
- IC50 (second compound 0.0316 µM): > 1 µM
- IC50 (second compound 0.1 µM): > 1 µM
- IC50 (second compound 0.316 µM): > 1 µM
- IC50 (second compound 1 µM): > 1 µM
- viability, T/C (second compound 0.00316 µM, first compound 0.00316 µM): 103%
- viability, T/C (second compound 0.00316 µM, first compound 0.01 µM): 97.4%
- viability, T/C (second compound 0.00316 µM, first compound 0.0316 µM): 100%
- viability, T/C (second compound 0.00316 µM, first compound 0.1 µM): 95.6%
- viability, T/C (second compound 0.00316 µM, first compound 0.316 µM): 89%
- viability, T/C (second compound 0.00316 µM, first compound 1 µM): 69.8%
- viability, T/C (second compound 0.01 µM, first compound 0.00316 µM): 107%
- viability, T/C (second compound 0.01 µM, first compound 0.01 µM): 100%
- viability, T/C (second compound 0.01 µM, first compound 0.0316 µM): 104%
- viability, T/C (second compound 0.01 µM, first compound 0.1 µM): 98.3%
- viability, T/C (second compound 0.01 µM, first compound 0.316 µM): 96.9%
- viability, T/C (second compound 0.01 µM, first compound 1 µM): 56%
- viability, T/C (second compound 0.0316 µM, first compound 0.00316 µM): 104%
- viability, T/C (second compound 0.0316 µM, first compound 0.01 µM): 99.2%
- viability, T/C (second compound 0.0316 µM, first compound 0.0316 µM): 98.3%
- viability, T/C (second compound 0.0316 µM, first compound 0.1 µM): 94.9%
- viability, T/C (second compound 0.0316 µM, first compound 0.316 µM): 93.5%
- viability, T/C (second compound 0.0316 µM, first compound 1 µM): 65.5%
- viability, T/C (second compound 0.1 µM, first compound 0.00316 µM): 103%
- viability, T/C (second compound 0.1 µM, first compound 0.01 µM): 104%
- viability, T/C (second compound 0.1 µM, first compound 0.0316 µM): 101%
- viability, T/C (second compound 0.1 µM, first compound 0.1 µM): 96.8%
- viability, T/C (second compound 0.1 µM, first compound 0.316 µM): 101%
- viability, T/C (second compound 0.1 µM, first compound 1 µM): 62.8%
- viability, T/C (second compound 0.316 µM, first compound 0.00316 µM): 93.8%
- viability, T/C (second compound 0.316 µM, first compound 0.01 µM): 96%
- viability, T/C (second compound 0.316 µM, first compound 0.0316 µM): 98.1%
- viability, T/C (second compound 0.316 µM, first compound 0.1 µM): 94.8%
- viability, T/C (second compound 0.316 µM, first compound 0.316 µM): 96.2%
- viability, T/C (second compound 0.316 µM, first compound 1 µM): 54.9%
- viability, T/C (second compound 1 µM, first compound 0.00316 µM): 105%
- viability, T/C (second compound 1 µM, first compound 0.01 µM): 95.8%
- viability, T/C (second compound 1 µM, first compound 0.0316 µM): 97.4%
- viability, T/C (second compound 1 µM, first compound 0.1 µM): 103%
- viability, T/C (second compound 1 µM, first compound 0.316 µM): 86.5%
- viability, T/C (second compound 1 µM, first compound 1 µM): 70.7%

Compound: CC(Nc1ccc2c(c1)OCCn1cc(N3C(=O)OCC3C(F)F)nc1-2)C(N)=O (centres undefined) + CCn1c(-c2cc(N3CCN(C)CC3)cnc2C(C)OC)c2c3cc(ccc31)-c1csc(n1)CC(NC(=O)C1CC1C)C(=O)N1CCCC(N1)C(=O)OCC(C)(C)C2
- IC50 (second compound 0.000949 µM): 1.29 µM
- IC50 (second compound 0.003 µM): 1.61 µM
- IC50 (second compound 0.00949 µM): 0.952 µM
- IC50 (second compound 0.03 µM): 0.849 µM
- IC50 (second compound 0.0949 µM): 0.431 µM
- IC50 (second compound 0.3 µM): < 0.0316 µM
- viability, T/C (second compound 0.000949 µM, first compound 0.0316 µM): 98.7%
- viability, T/C (second compound 0.000949 µM, first compound 0.1 µM): 107%
- viability, T/C (second compound 0.000949 µM, first compound 0.316 µM): 86.6%
- viability, T/C (second compound 0.000949 µM, first compound 1 µM): 58%
- viability, T/C (second compound 0.000949 µM, first compound 3.16 µM): 26.4%
- viability, T/C (second compound 0.000949 µM, first compound 10 µM): 27.9%
- viability, T/C (second compound 0.003 µM, first compound 0.0316 µM): 103%
- viability, T/C (second compound 0.003 µM, first compound 0.1 µM): 98.8%
- viability, T/C (second compound 0.003 µM, first compound 0.316 µM): 93%
- viability, T/C (second compound 0.003 µM, first compound 1 µM): 59.5%
- viability, T/C (second compound 0.003 µM, first compound 3.16 µM): 36.7%
- viability, T/C (second compound 0.003 µM, first compound 10 µM): 27.5%
- viability, T/C (second compound 0.00949 µM, first compound 0.0316 µM): 96.8%
- viability, T/C (second compound 0.00949 µM, first compound 0.1 µM): 105%
- viability, T/C (second compound 0.00949 µM, first compound 0.316 µM): 64.9%
- viability, T/C (second compound 0.00949 µM, first compound 1 µM): 56.2%
- viability, T/C (second compound 0.00949 µM, first compound 3.16 µM): 32.4%
- viability, T/C (second compound 0.00949 µM, first compound 10 µM): 32.3%
- viability, T/C (second compound 0.03 µM, first compound 0.0316 µM): 97.2%
- viability, T/C (second compound 0.03 µM, first compound 0.1 µM): 89.6%
- viability, T/C (second compound 0.03 µM, first compound 0.316 µM): 70.7%
- viability, T/C (second compound 0.03 µM, first compound 1 µM): 45.8%
- viability, T/C (second compound 0.03 µM, first compound 3.16 µM): 38.7%
- viability, T/C (second compound 0.03 µM, first compound 10 µM): 34.9%
- viability, T/C (second compound 0.0949 µM, first compound 0.0316 µM): 88.6%
- viability, T/C (second compound 0.0949 µM, first compound 0.1 µM): 73%
- viability, T/C (second compound 0.0949 µM, first compound 0.316 µM): 51.9%
- viability, T/C (second compound 0.0949 µM, first compound 1 µM): 41.7%
- viability, T/C (second compound 0.0949 µM, first compound 3.16 µM): 32.5%
- viability, T/C (second compound 0.0949 µM, first compound 10 µM): 29.4%
- viability, T/C (second compound 0.3 µM, first compound 0.0316 µM): 32.6%
- viability, T/C (second compound 0.3 µM, first compound 0.1 µM): 28.3%
- viability, T/C (second compound 0.3 µM, first compound 0.316 µM): 11.2%
- viability, T/C (second compound 0.3 µM, first compound 1 µM): 3.11%
- viability, T/C (second compound 0.3 µM, first compound 3.16 µM): 3.38%
- viability, T/C (second compound 0.3 µM, first compound 10 µM): 3.53%
